Laboratory results taken from patent publication US11655217B2, “Pyrazole MAGL inhibitors” (H. Lundbeck A/S, priority 2017, dated 2023).

Assays:
MAGL = MAGL (Mus musculus (Mouse), UniProt O35678); assay: Mouse brain proteomes from inhibitor treated mice (oral gavage, sacrificed 4 h after administration, ABPP analysis); conditions: 5 mg/kg oral gavage
Procedure: (§1) Preparation of Mouse Brain Proteomes from Inhibitor Treated Mice.
(§2) Inhibitors were administered to wild-type C57Bl/6J by oral gavage in a vehicle of polyethylene glycol.

FAAH = FAAH (Mus musculus (Mouse), UniProt O08914); assay: Mouse brain proteomes from inhibitor treated mice (oral gavage, sacrificed 4 h after administration, ABPP analysis), FAAH; conditions: 5 mg/kg oral gavage
Chain of FAAH (O08914 whole entry): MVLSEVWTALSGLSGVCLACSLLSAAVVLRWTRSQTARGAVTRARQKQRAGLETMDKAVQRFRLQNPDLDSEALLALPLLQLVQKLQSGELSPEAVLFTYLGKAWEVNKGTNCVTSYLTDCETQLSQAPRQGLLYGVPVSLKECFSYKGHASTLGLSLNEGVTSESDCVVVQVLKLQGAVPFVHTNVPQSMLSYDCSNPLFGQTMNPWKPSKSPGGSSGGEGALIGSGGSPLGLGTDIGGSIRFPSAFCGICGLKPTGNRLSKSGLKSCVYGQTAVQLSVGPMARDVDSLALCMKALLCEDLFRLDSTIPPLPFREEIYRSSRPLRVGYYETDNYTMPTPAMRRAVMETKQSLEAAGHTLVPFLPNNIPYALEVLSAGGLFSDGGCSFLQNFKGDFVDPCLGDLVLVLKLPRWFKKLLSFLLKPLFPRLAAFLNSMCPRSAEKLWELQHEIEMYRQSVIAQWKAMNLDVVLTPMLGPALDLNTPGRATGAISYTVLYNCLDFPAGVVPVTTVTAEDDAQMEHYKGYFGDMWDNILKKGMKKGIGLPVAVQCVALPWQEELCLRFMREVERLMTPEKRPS
Procedure: as §1, §2

Chain of MAGL (O35678 whole entry): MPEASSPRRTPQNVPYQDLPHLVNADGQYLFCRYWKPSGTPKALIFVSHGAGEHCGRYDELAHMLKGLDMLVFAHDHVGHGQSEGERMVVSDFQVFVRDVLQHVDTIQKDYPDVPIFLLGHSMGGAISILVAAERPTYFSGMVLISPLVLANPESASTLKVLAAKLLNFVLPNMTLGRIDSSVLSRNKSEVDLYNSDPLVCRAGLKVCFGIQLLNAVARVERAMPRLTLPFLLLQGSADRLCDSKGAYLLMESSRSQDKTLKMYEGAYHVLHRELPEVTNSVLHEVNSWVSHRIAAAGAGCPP

SMILES | MAGL % inh. 5 mg/kg (mouse) (MAGL) | FAAH % inh. 5 mg/kg (mouse) (FAAH)
NC(=O)c1ccn(C(=O)N2CCN(Cc3cccc(C(F)(F)F)c3N3CCOCC3)CC2)n1 [Example 199, 1-(4-(2-morpholino-3-(trifluoromethyl)benzyl)piperazine-1-carbonyl)-1H-pyrazole-3-carboxamide] | A (% inhibition is greater than or equal to 75%) | D (% inhibition is greater than or equal to 0% and less than 25%)
CN(Cc1ccc(C(F)(F)F)cc1N1C2CCC1COC2)C1(C)CCN(C(=O)n2ccc(C(=O)O)n2)CC1 [Example 207, 1-(4-((2-(3-oxa-8-azabicyclo[3.2.1]octan-8-yl)-4-(trifluoromethyl)benzyl)(methyl)-amino)-4-methyl-piperidine-1-carbonyl)-1H-pyrazole-3-carboxylic acid] | D (% inhibition is greater than or equal to 0% and less than 25%) | D (% inhibition is greater than or equal to 0% and less than 25%)
O=C(O)c1ccn(C(=O)N2CCC3(CCN(Cc4cccc(Oc5ccc(Cl)cc5)c4)C3)CC2)n1 [Example 210, 1-(2-(3-(4-chlorophenoxy)benzyl)-2,8-diazaspiro[4.5]decane-8-carbonyl)-1H-pyrazole-3-carboxylic acid] | D (% inhibition is greater than or equal to 0% and less than 25%) | D (% inhibition is greater than or equal to 0% and less than 25%)
O=C(O)c1ccn(C(=O)N2CCN(Cc3cccc(Cl)c3N3CC4COCC4C3)CC2)n1 (stereo not shown) [Example 211, 1-(4-(3-chloro-2-(tetrahydro-1H-furo[3,4-c]pyrrol-5(3H)-yl)benzyl)piperazine-1-carbonyl)-1H-pyrazole-3-carboxylic acid] | D (% inhibition is greater than or equal to 0% and less than 25%) | D (% inhibition is greater than or equal to 0% and less than 25%)
O=C(O)c1ccn(C(=O)N2CCN(Cc3cccc(Cl)c3N3C4CCC3COC4)CC2)n1 [Example 212, 1-(4-(2-(3-oxa-8-azabicyclo[3.2.1]octan-8-yl)-3-chlorobenzyl)piper-azine-1-carbonyl)-1H-pyrazole-3-carboxylic acid] | D (% inhibition is greater than or equal to 0% and less than 25%) | D (% inhibition is greater than or equal to 0% and less than 25%)
